In patent US20060069039A1, “Treatment of dyskinesia” (priority 2002, published 2006):
Counter-ions that a name gives are not always drawn.

Tests used:
MPTP-lesioned marmosets = experiment: L-DOPA-induced dyskinesia and parkinsonian disability in the MPTP-lesioned marmoset model of Parkinson's disease; assay type: in vivo, marmosets (Callithrix jacchuis); conditions: topiramate oral plus L-DOPA 15 mg/kg, n=6
Text: The MPTP-lesioned primate represents the best animal model of Parkinson's disease and L-DOPA-induced dyskinesia, the most common form of dyskinesia encountered in the clinical situation. The pathology, symptomatology and response of symptoms to treatments and production of side effects following treatment are very similar in the MPTP-lesioned primate to those seen in Parkinson's disease patients. Thus, when untreated, MPTP-lesioned primates show parkinsonian symptoms such as reduced range of movement, reduced speed of movement (bradykinesia) and an abnormal, hunched, parkinsonian posture. […] A study was performed on six adult marmosets (Callithrix jacchuis) to assess the ability of topiramate to reduce dyskinesia, specifically L-DOPA-induced dyskinesia. The marmosets were rendered parkinsonian by subcutaneous injection of 2 mg/kg MPTP for 5 consecutive days. […] The degree of activity and disability before and after MPTP treatment were assessed using a combination of scales that measure locomotor activity, mobility, bradykinesia and posture (see below). […] Behavior was assessed for 6 hours post drug administration. […] Data were collected for each one hour time period for severity of dyskinesia and were analyzed with a Wilcoxon matched pairs test (the software used was Prism version 3.0, GraphPad Software Inc). […]

[1] = cited from earlier work
essential tremor = conditions: clinical trial; cited from earlier work

CC1(C)O[C@@H]2[C@@H](CO[C@@]3(COS(N)(=O)=O)OC(C)(C)O[C@@H]23)O1 [Topiramate, 2,3:4,5-bis-O-(1-methylethylidene)-β-D-fructopyranose sulfamate]
dyskinesia following topiramate and L-DOPA in comparison to L-DOPA alone (MPTP-lesioned marmosets; Wilcoxon P<0.05 at 0-1 h and 1-2 h, P>0.05 at 2-3 h): less dyskinesia
effect on the anti-Parkinsonian action of L-DOPA (parkinsonian disability) (MPTP-lesioned marmosets; Wilcoxon P>0.05): without major effect
solubility in alkaline solutions ([1]; alkaline solutions containing sodium hydroxide or sodium phosphate, pH of 9 to 10): most soluble
solubility in acetone, chloroform, dimethylsulfoxide and ethanol ([1]; organic solvents): freely soluble
pH of saturated solution ([1]; saturated solution): 6.3
mean improvement in tremor (essential tremor): 25%

CCN(CC)CCNC(=O)c1cc(Cl)c(N)cc1OC [Metoclopramide hydrochloride, 4-amino-5-chloro-N-[2-(diethylamino)ethyl]-2-methoxy benzamide monohydrochloride monohydrate]
solubility in water ([1]; water): freely soluble
